Experimental data from PMC3159548 (Biochemical pharmacology, 2011).
Positions count from the first letter of the chain named. Names and notes keep the numbering of the source. Values joined by “and” are separate entries in the source; they are usually repeats but may differ in a detail not shown here. Equal entries are not always repeated. Structures can show the parent of a compound that is named as a salt. Where two headings read alike, the source gives them in different places.

Experiments:
CYP2C8.3 [1] = molecular target: T1, CYP2C8.3 (Homo sapiens, UniProt P10632, K399R/R139K); details: for Clint: kcat/Km
T1 sequence (P10632 1-490 R139K/K399R): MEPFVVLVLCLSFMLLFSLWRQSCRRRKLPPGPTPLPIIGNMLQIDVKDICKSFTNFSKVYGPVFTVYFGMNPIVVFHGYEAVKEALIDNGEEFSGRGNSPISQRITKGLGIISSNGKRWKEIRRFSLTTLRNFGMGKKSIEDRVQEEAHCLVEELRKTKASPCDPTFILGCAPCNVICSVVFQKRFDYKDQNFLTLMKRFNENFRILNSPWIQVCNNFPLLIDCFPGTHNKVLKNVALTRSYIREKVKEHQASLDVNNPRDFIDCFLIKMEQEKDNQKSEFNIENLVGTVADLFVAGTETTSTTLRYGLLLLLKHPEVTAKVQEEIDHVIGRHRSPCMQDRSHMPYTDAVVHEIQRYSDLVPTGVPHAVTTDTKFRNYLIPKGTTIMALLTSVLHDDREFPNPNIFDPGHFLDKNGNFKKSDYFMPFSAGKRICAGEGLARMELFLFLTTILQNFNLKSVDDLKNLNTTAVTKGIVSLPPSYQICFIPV

CYP2C8.1 [2] = molecular target: T2, CYP2C8.1 (Homo sapiens, UniProt P10632); details: for Clint: kcat/Km
T2 sequence (P10632 1-490): T1 sequence (P10632 1-490 R139K/K399R) with K139R, R399K

CYP2C8.3 [3] = molecular target: T1, CYP2C8.3
CYP2C8.3 [4] = molecular target: T1, CYP2C8.3; details: ref [8], cited from earlier work; for Clint: kcat/Km
CYP2C8.3 [5] = molecular target: T1, CYP2C8.3; assay: Equilibrium spectral binding of ligands and redox cofactors to purified CYP2C8.3; details: for % change in Bmax, first binding event / % change in Bmax, second binding event / % change in Bmax, redox partner binding: CYP2C8.3 in comparison to CYP2C8.1; for Kd: read-out: KD of redox partner, spectral binding of redox partner to CYP2C8.3
CYP2C8 = details: excess of cytochrome b5 (up to 10:1)
[6] = molecular target: T3, P450 reductase - CYP2C8.3 complex (Homo sapiens, UniProt P10632, K399R/R139K); details: probe reaction of each substrate
T3 sequence (P10632 1-490 R139K/K399R): T1 sequence (P10632 1-490 R139K/K399R)

CYP2C8.1 [7] = molecular target: T2, CYP2C8.1; details: ref [8], cited from earlier work; for Clint: kcat/Km
CYP2C8.3 [8] = molecular target: T1, CYP2C8.3; details: absence of cytochrome b5 in the reconstitution system; CPR:CYP2C8 2:1
CYP2C8.1 [9] = molecular target: T2, CYP2C8.1; assay: Equilibrium spectral binding of ligands and redox cofactors to purified CYP2C8.1; details: read-out: KD of redox partner; spectral binding of redox partner to CYP2C8.1
[10] = substrate: CC(=O)O[C@H]1C(=O)[C@@]2(C)[C@H]([C@H](OC(=O)c3ccccc3)[C@]3(O)C[C@H](OC(=O)[C@H](O)[C@@H](NC(=O)c4ccccc4)c4ccccc4)C(C)=C1C3(C)C)[C@]1(OC(C)=O)CO[C@@H]1C[C@@H]2O
[11] = substrate: CN(CCOc1ccc(CC2SC(=O)NC2=O)cc1)c1ccccn1
[12] = substrate: CCN(CC)Cc1cc(Nc2ccnc3cc(Cl)ccc23)ccc1O
[13] = substrate: CN(CCOc1ccc(CC2SC(=O)NC2=O)cc1)c1ccccn1; remark: listed apart in the source
[14] = substrate: CCN(CC)Cc1cc(Nc2ccnc3cc(Cl)ccc23)ccc1O; remark: listed apart in the source
[15] = CER hydroxylation (M23 formation)

In the case of `CN(CCOc1ccc(CC2SC(=O)NC2=O)cc1)c1ccccn1` (centres unmarked) [RG, rosiglitazone], the Clint (CYP2C8.3 [1]; RG N-de-methylation) is reported as 0.33 µM⁻¹ min⁻¹, the Clint (CYP2C8.3 [1]; RG p-hydroxylation) is reported as 0.29 µM⁻¹ min⁻¹ and the Clint (CYP2C8.1 [2]; RG N-de-methylation) is reported as 0.13 µM⁻¹ min⁻¹. For the same molecule, the Clint (CYP2C8.1 [2]; RG p-hydroxylation) was 0.11 µM⁻¹ min⁻¹ and the Ki (CYP2C8.3 [3]) was 150000 nM.

In the case of `COCc1c(C(C)C)nc(C(C)C)c(/C=C/[C@@H](O)C[C@@H](O)CC(=O)O)c1-c1ccc(F)cc1` [CER, (3R,5S,6E)-7-[4-(4-Fluorophenyl)-5-(methoxymethyl)-2,6-bis(1-methylethyl)-3-pyridinyl]-3,5-dihydroxy-6-heptenoic Acid Sodium Salt], the Clint (CYP2C8.3 [4]; CER O-demethylation) is listed as 0.11 µM⁻¹ min⁻¹, the Km (CYP2C8.3 [4]; CER O-demethylation) is listed as 13 ± 2 µM and the kcat (CYP2C8.3 [4]; CER O-demethylation) is listed as 1.47 ± 0.06 (**) nmol nmol P450^−1 min^−1. The Km (CYP2C8.3 [4]; [15]) was 13 ± 2 µM, the kcat (CYP2C8.3 [4]; [15]) was 0.61 ± 0.03 (**) nmol nmol P450^−1 min^−1 and the Clint (CYP2C8.3 [4]; CER hydroxylation) was 0.047 µM⁻¹ min⁻¹. The “% change in Bmax, first binding event” value (CYP2C8.3 [5]) was “+45%”, the “% change in Bmax, second binding event” value (CYP2C8.3 [5]) was “+533%” and the “inhibition of CYP-activity by cytochrome b5” value (CYP2C8) was “less evident”. The “decrease of Km, red of CYP2C8.3 in comparison to CYP2C8.1” value [6] was “did not vary”, the Clint (CYP2C8.1 [7]; CER O-demethylation) was 0.024 µM⁻¹ min⁻¹ and the Km (CYP2C8.1 [7]; CER O-demethylation) was 24 ± 3 µM. The kcat (CYP2C8.1 [7]; CER O-demethylation) was 0.57 ± 0.02 nmol nmol P450^−1 min^−1, the Km (CYP2C8.1 [7]; [15]) was 23 ± 2 µM and the kcat (CYP2C8.1 [7]; [15]) was 0.22 ± 0.01 nmol nmol P450^−1 min^−1. The Clint (CYP2C8.1 [7]; CER hydroxylation) was 0.0096 µM⁻¹ min⁻¹.

For `CC(=O)O[C@H]1C(=O)[C@@]2(C)[C@H]([C@H](OC(=O)c3ccccc3)[C@]3(O)C[C@H](OC(=O)[C@H](O)[C@@H](NC(=O)c4ccccc4)c4ccccc4)C(C)=C1C3(C)C)[C@]1(OC(C)=O)CO[C@@H]1C[C@@H]2O` [PAC, paclitaxel], the “fold higher Clint (kcat/Km) for CYP2C8.3 compared to CYP2C8.1” value (CYP2C8.3 [1]; DEAQ formation, p-hydroxy and N-de-methyl RG, PAC 6α-hydroxylation) was 1.5 fold, the Clint (CYP2C8.3 [1]; PAC 6α-hydroxylation) was 0.16 µM⁻¹ min⁻¹ and the substrate inhibition (CYP2C8.1 [2]; CYP2C8.1) was “negligible”. For the same molecule, the Ki (CYP2C8.3 [3]) was 103000 nM, the “% change in Bmax, first binding event” value (CYP2C8.3 [5]) was “+79%” and the “% change in Bmax, second binding event” value (CYP2C8.3 [5]) was −14%. The “inhibition of CYP-activity by cytochrome b5” value (CYP2C8) was “strong inhibition”, the “activity of CYP2C8.3 compared to CYP2C8.1” value (CYP2C8.3 [8]) was “less active” and the “decrease of Km, red of CYP2C8.3 in comparison to CYP2C8.1” value [6] was about 7 fold.

B1: CPR: Rat cytochrome P450 reductase, expressed; redox partner of CYP2C8 (protein, UniProt P00388 2-678, looked up)
NADPH--cytochrome P450 …: GDSHEDTSATMPEAVAEEVSLFSTTDMVLFSLIVGVLTYWFIFRKKKEEIPEFSKIQTTAPPVKESSFVEKMKKTGRNIIVFYGSQTGTAEEFANRLSKDAHRYGMRGMSADPEEYDLADLSSLPEIDKSLVVFCMATYGEGDPTDNAQDFYDWLQETDVDLTGVKFAVFGLGNKTYEHFNAMGKYVDQRLEQLGAQRIFELGLGDDDGNLEEDFITWREQFWPAVCEFFGVEATGEESSIRQYELVVHEDMDVAKVYTGEMGRLKSYENQKPPFDAKNPFLAAVTANRKLNQGTERHLMHLELDISDSKIRYESGDHVAVYPANDSALVNQIGEILGADLDVIMSLNNLDEESNKKHPFPCPTTYRTALTYYLDITNPPRTNVLYELAQYASEPSEQEHLHKMASSSGEGKELYLSWVVEARRHILAILQDYPSLRPPIDHLCELLPRLQARYYSIASSSKVHPNSVHICAVAVEYEAKSGRVNKGVATSWLRAKEPAGENGGRALVPMFVRKSQFRLPFKSTTPVIMVGPGTGIAPFMGFIQERAWLREQGKEVGETLLYYGCRRSDEDYLYREELARFHKDGALTQLNVAFSREQAHKVYVQHLLKRDREHLWKLIHEGGAHIYVCGDARNMAKDVQNTFYDIVAEFGPMEHTQAVDYVKKLMTKGRYSLDVWS
For B1, the “% change in Bmax, redox partner binding” value (CYP2C8.3 [5]) was “+76%”, the Kd (CYP2C8.3 [5]) was 20.7 ± 0.2 nM and the Kd (CYP2C8.1 [9]) was 29.4 ± 0.2 nM.

B2: CYP2C8.1 (Homo sapiens) (protein)
chain: T1 sequence (P10632 1-490 R139K/K399R) with K139R, R399K
For B2, the Km [10] was 3.7 ± 0.6 µM, the kcat [10] was 0.00483 s⁻¹ and the kcat/Km [10] was 1830 M⁻¹ s⁻¹. The Km [11] was 4.0 ± 0.8 µM and 2.9 ± 0.6 µM, the Km [12] was 3.0 ± 0.4 µM and the kcat [12] was 0.095 ± 0.00333 s⁻¹. It also gave a kcat/Km [12] of 31700 M⁻¹ s⁻¹.

B3: CYP2C8.3 (Homo sapiens; K399R/R139K) (protein)
chain: T1 sequence (P10632 1-490 R139K/K399R)
With B3 the Km [10] was 4.7 ± 0.7 (−) µM, the kcat [10] was 0.0127 s⁻¹ and the kcat/Km [10] was 2670 M⁻¹ s⁻¹. For the same molecule, the Km [13] was 10.2 ± 0.9 µM and 8.0 ± 0.6 µM, the Km [14] was 7.5 ± 0.5 µM and the kcat [14] was 0.497 ± 0.0117 s⁻¹. The kcat/Km [14] was 66700 M⁻¹ s⁻¹.

B4: Cytochrome b5: expressed cytochrome b5; redox partner of CYP2C8 (protein, UniProt P00167 2-134, looked up)
Cytochrome b5: AEQSDEAVKYYTLEEIQKHNHSKSTWLILHHKVYDLTKFLEEHPGGEEVLREQAGGDATENFEDVGHSTDAREMSKTFIIGELHPDDRPKLNKPPETLITTIDSSSSWWTNWVIPAISAVAVALMYRLYMAED
With B4 the “% change in Bmax, redox partner binding” value (CYP2C8.3 [5]) was “+298%”, the Kd (CYP2C8.3 [5]) was 16.8 ± 0.3 nM and the Kd (CYP2C8.1 [9]) was 34.4 ± 0.4 nM.
